In patent US20090137688A1, “PHARMACEUTICAL PRODUCT” (priority 2005, published 2009):
Where a name gives a salt, the structure may show the parent alone.

Experiment: Accumulative release from porous silicon samples immersed in PBS buffer, measured by UV spectroscopic technique
Format: physicochemical
Conditions: PBS buffer at 37 C; for rate of release when the porous silicon wafer has been coated with cocoa butter, relative to the uncoated state: Method A, cocoa butter layer approx. 1 mm, FIG. 1
Protocol: A number of experiments were performed to show the effect of an excipient upon the release of a beneficial substance from the pores of porous silicon. Three substances were tested: chlorambucil, amitriptyline hydrochloride, neutral red. The excipient employed was cocoa butter. Three methods of combining the porous silicon, excipient, and beneficial substance, were carried out.
Method A comprises the steps of: (a) dissolving the beneficial substance in ethanol; (b) introducing the ethanolic solution of the beneficial substance to the surface of the porous silicon wafer and allowing it to pass into the pores; (c) applying heat to the porous silicon wafer by means of a hot plate to drive off the ethanol, (d) removing the excess beneficial substance, that has not entered the pores, by washing with ethanol; (e) dropping melted cocoa butter oil onto the porous side of the wafer, which has been loaded with a beneficial substance; and (f) allowing the wafer to cool at an ambient temperature of 20 C for approximately one hour, the cocoa butter forming a layer, approximately 1 mm in depth, that coats the surface of the porous silicon.
Method B comprises the steps: (a) dissolving the beneficial substance and excipient in ethanol; (b) introducing the ethanolic solution of the beneficial substance and excipient to the surface of the porous silicon wafer and allowing it to pass into the pores; (c) applying heat to the porous silicon wafer by means of a hot plate thereby driving off the ethanol, and (d) removing the excess beneficial substance and excipient, that have not entered the pores, by washing with ethanol. The porosified wafer, utilized for methods A and B, comprised mesoporous silicon having a porosity of 74%.
Method C comprises the steps: (a) fabricating particles of porous silicon by milling one or more porous silicon membranes; (b) combining the silicon particles with an ethanolic solution of the beneficial substance in a flask; (c) removing the ethanol by rotary evaporation; (d) mixing the beneficial substance loaded particles with excipient, (e) introducing the mixture to a cylindrical die, and (f) applying a uniaxial pressure of 0.5 ton to form a pellet. The porous silicon membrane, utilized for method C, comprises mesoporous silicon having a porosity of: 77%.
Samples of porous silicon that have been combined with beneficial substance and excipient by methods A, B, and C were then immersed in PBS buffer at 37 C, and the accumulative release was measured by means of a UV spectroscopic technique.
The uncoated samples, the results for which are shown in FIG. 1, were prepared, with the steps (a) to (d) of method A.

[1] = mesoporous silicon wafer, porosity 74%

SMILES | rate of release when the porous silicon wafer has been coated with cocoa butter, relative to the uncoated state [1] | rate of release for porous silicon loaded with beneficial substance alone, compared with solution loading with cocoa butter (Method B, mesoporous silicon wafer, porosity 74%, FIG. 2) | rate of release from pellet, excipient free sample versus pellet with equal mass of cocoa butter and porous silicon, during the first seven hours (Method C, compressed pellet, mesoporous silicon porosity 77%, FIG. 3) | rate of release from the excipient containing pellet beyond seven hours (Method C, pellet with equal mass of cocoa butter and porous silicon, FIG. 3)
O=C(O)CCCc1ccc(N(CCCl)CCCl)cc1 [chlorambucil] | increases | faster than when the excipient is present | higher, from the excipient free sample | accelerates until it is higher than that of the excipient free sample
CN(C)CCC=C1c2ccccc2CCc2ccccc21 [amitriptyline hydrochloride] | slower |  |  | 
